{"source": "patent US7498406B2", "about": "“Substantially cell membrane impermeable compound and use thereof” (priority 1999, dated 2009)", "key": {"BxPC-3 tumours [1]": {"system": "BxPC-3 tumours", "experiment": "Tumour growth, oral administration in water", "type": "in vivo, SCID mice", "conditions": "~10 mg per kg per day in water", "procedure": "FIG. 28. Inhibition of human pancreatic carcinoma and murine Lewis lung tumour growth by oral administration of GSAO. BxPC-3 or Lewis lung tumours were established in the proximal midline of female 7 to 9 week old SCID or C57Bl6/J mice, respectively, SCID mice bearing ˜0.5 g BxPC-3 tumours or C57Bl6/J mice bearing 0.1 g Lewis lung tumours were randomised into two groups (n=2 for BxPC-3 and n=3 for Lewis lung) and treated with either GSAA or GSAO (0.05 mg per mL) in their water. Mice drink ˜5 mL of water per day and therefore consumed ˜10 mg GSAO or GSM per kg per day. The water contained 100 mM glycine to minimise oxidation of GSAO. Tumour volume and animal weight was measured every 3 days. The data points and errors represent the mean and SE of the tumour volumes.\nSCID mice bearing subcutaneous human pancreatic carcinoma tumours or C57Bl6/J mice bearing subcutaneous murine Lewis lung tumours were fed either ˜10 mg per kg per day GSAO or GSAA in their water."}, "3T3": {"system": "3T3", "experiment": "Proliferation of cultured cells, 72 hr", "type": "cell-based, murine", "conditions": "5% FCS, 0 to 1 mM", "procedure": "(§1) FIG. 19. Effect of GSAO on proliferation of non-endothelial cells. 15,000 BxPC-3 (part A), HT1080 (part B), 3T3 (part C) or BVSM (part D) cells per well were seeded into gelatinised 24-well culture plates and allowed to attach for 24 hr. The media was then replaced with DMEM containing 0 to 1 mM GSAO or GSAA and either 5% BCS (part D) or 5% FCS (parts A, B and C). Cells were cultured for 72 hr and then dispersed and counted. The dotted lines indicate the cell number in control wells containing DMEM and 2% BCS (part D) or 2% FCS (parts A, B and C) which represented no to limited proliferation. The data points and errors represent the mean and range of duplicate wells.\nBCE (Folkman et al. 1979), BAE, BxPC-3 (ATCC, Bethesda, Md.), HT1080 (Jiang et al., 1999), 3T3 (ATCC, Bethesda, Md.) and BVSM (Hogg et al., 1997) cells were harvested and cultured as indicated. […] Cells were cultured for 0 to 72 hr in 10% CO2 at 37° C. then dispersed in trypsin/EDTA (GibcoBRL, Granc Island, N.Y.), resuspended in Coulter balanced electrolyte solution and counted with a Z1 Coulter counter (Coulter Corp., Miami, Fla.) in all experiments there were two control wells containing DMEM with 1% GPS and either 5% BCS for BCE cells, 2% BCS for BAE and BVSM cells, or 2% FCS for BxPC-3, HT1080 and 3T3 cells. […]"}, "HT1080": {"system": "HT1080", "experiment": "Proliferation of cultured cells, 72 hr", "type": "cell-based, human", "conditions": "5% FCS, 0 to 1 mM", "procedure": "as §1\n(§2) BCE (Folkman et al. 1979), BAE, BxPC-3 (ATCC, Bethesda, Md.), HT1080 (Jiang et al., 1999), 3T3 (ATCC, Bethesda, Md.) and BVSM (Hogg et al., 1997) cells were harvested and cultured as indicated. Cells (0.5 mL of 30,000 or 100,000 cells per mL) were seeded into gelatinized 24-well culture plates (Corning Costar, Corning, N.Y.) in Dulbecco's Modified Eagle's Medium (DMEM, JHR Bioscience, Lenexa, Kans.) containing 10% fetal calf serum (FCS, Intergen Comp., Purchase, N.Y.) and 1% Glutamine Pen-Strep (GPS, Irvine Scientific, Santa Ana, Va.) and allowed to attach for 24 hr in 10% CO2 at 37° C. The media was then replaced with DMEM and 1% GPS containing 0 to 1 mM GSAO or GSAA and either 5% bovine calf serum (BCS, HyClone, Logan, Utah) and 1 ng per mL FGF-2 (Genzyme, Cambridge, Mass.) or 5% BCS and 10 ng per mL VEGF (Genzyme, Cambridge, Mass.) for BCE cells, 5% or 10% BCS for BAE cells, 5% BCS for BVSM cells, and 5% FCS for BxPC-3, HT1080 and 3T3 cells. Cells were cultured for 0 to 72 hr in 10% CO2 at 37° C. then dispersed in trypsin/EDTA (GibcoBRL, Granc Island, N.Y.), resuspended in Coulter balanced electrolyte solution and counted with a Z1 Coulter counter (Coulter Corp., Miami, Fla.) in all experiments there were two control wells containing DMEM with 1% GPS and either 5% BCS for BCE cells, 2% BCS for BAE and BVSM cells, or 2% FCS for BxPC-3, HT1080 and 3T3 cells. These wells represented no to limited proliferation."}, "BxPc3": {"system": "BxPc3", "experiment": "Proliferation of cultured cells, 72 hr", "type": "cell-based, human", "conditions": "5% FCS, 0 to 1 mM", "procedure": "as §1, §2"}, "BxPC-3 tumours [2]": {"system": "BxPC-3 tumours", "experiment": "Histological analysis of BxPC-3 tumours (CD-31, PCNA, TUNEL)", "type": "in vivo, SCID mice", "conditions": "for necrosis of treated tumours: not shown", "procedure": "FIG. 26. Inhibition of angiogenesis in human pancreatic tumours by GSAO. Histological sections of the BxPC-3 tumours shown in part C of FIG. 23 from GSAA and GSAO-treated mice were analysed for angiogenesis (CD-31), proliferation (PCNA) and apoptosis (TUNEL).\nThe tumours shown in FIG. 23C were fixed in Buffered Formalde-Fresh (Fisher Scientific, Fair Lawn, N.J.), embedded in paraffin and […] sections were cut and placed on glass slides. Sections were stained with haematoxylin and eosin or for CD31, PCNA or fragmented DNA (TUNEL). Sections were incubated overnight at 4° C. with a […] of anti-mouse CD-31 antibody (PharMingen, San Diego, Calif.) followed by a 1:200 dilution of biotinylated anti-rat secondary antibody (Vestor, Burlingame, Calif.). The staining was enhanced by tyramide amplification (New England Nuclear, Boston, Mass.). Staining for PCNA was performed as described by Holmgren et al. (1995) while TUNEL labeling of fragmented DNA was performed according to Gavrielli et al. (1992).\nVascular density was determined by selecting 3 tumours, including the smallest and largest, from the control and treatment groups. […] The highest of the three counts was the value taken and two sections from each tumour was examined. The proliferative index was estimated by the percentage of cells scored under 400× magnification (Holmgren et al., 1995). A minimum of 1000 cells was counted in two separate sections. The apoptotic index was estimated by the percentage of cells scored under 400× magnification. A minimum of 1500 cells was counted in two separate sections (Holmgren et al., 1995)."}}, "note": "“Also recorded” adds a separate entry of the source.", "data": [{"smiles": "NC(CCC(=O)NC(CSCC(=O)Nc1ccc([As]=O)cc1)C(=O)NCC(=O)O)C(=O)O", "note": "(stereo not shown) [GSAO, 4-(N-(S-glutathionylacetyl)amino)-phenylarsenoxide]", "values": [{"measurement": "growth of pancreatic tumours", "setting": "BxPC-3 tumours [1]", "value": "stopped growing"}, {"measurement": "Proliferation IC50", "setting": "3T3", "value": "did not affect the proliferation; also recorded: No effect"}, {"measurement": "Proliferation IC50", "setting": "HT1080", "value": "did not affect the proliferation"}, {"measurement": "Proliferation IC50", "setting": "BxPc3", "value": "did not affect the proliferation"}, {"measurement": "proliferative index of tumour cells (PCNA)", "setting": "BxPC-3 tumours [2]; GSAO- vs GSAA-treated", "value": "no significant difference"}, {"measurement": "tumour angiogenesis (CD-31)", "setting": "BxPC-3 tumours [2]; GSAO- vs GSAA-treated, 10 mg per kg per day, day 31, p<0.001", "value": "marked suppression of angiogenesis; also recorded: marked reduction in angiogenesis"}, {"measurement": "apoptotic index of tumour cells (TUNEL)", "setting": "BxPC-3 tumours [2]; GSAO- vs GSAA-treated, p=0.05", "value": "increase in the apoptotic index"}, {"measurement": "necrosis of treated tumours", "setting": "BxPC-3 tumours [2]", "value": "no macroscopic or microscopic signs of necrosis"}]}, {"smiles": "N[C@@H](CCC(=O)N[C@@H](CSCC(=O)Nc1ccc([As](=O)(O)O)cc1)C(=O)NCC(=O)O)C(=O)O", "note": "[GSAA, 4-(N-(S-glutathionylacetyl)amino)phenylarsonic acid, reference compound]", "values": [{"measurement": "growth of pancreatic tumours", "setting": "BxPC-3 tumours [1]", "value": "no significant effect"}, {"measurement": "Proliferation IC50", "setting": "3T3", "value": "no significant effect"}, {"measurement": "Proliferation IC50", "setting": "HT1080", "value": "no significant effect"}, {"measurement": "Proliferation IC50", "setting": "BxPc3", "value": "no significant effect"}, {"measurement": "necrosis of treated tumours", "setting": "BxPC-3 tumours [2]", "value": "no macroscopic or microscopic signs of necrosis"}]}]}
